Data from patent publication US20240115557A1, “INHIBITORS OF RNA-GUIDED NUCLEASES AND USES THEREOF” (The Brigham and Women's Hospital, Inc., priority 2022, published 2024).

Key:
[1] = target: SpCas9 (Streptococcus pyogenes serotype M1, UniProt Q99ZW2); test: eGFP disruption assay, SpCas9, U2OS.eGFP.PEST cells; assay type: cell-based; conditions: for Z score Rep1 / Normalized Z rep1: replicate 1; for SpCas9 eGFP disruption Rep1: replicate 1, raw readout; for Z socre Rep2 / Normalized Z rep2: replicate 2; for SpCas9 eGFP disruption Rep2: replicate 2, raw readout
Procedure, shortened: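 Rescue of eGFP signal lost through Cas9-induced NHEJ indels serves as the inhibition read-out, after 24 h compound exposure (20 μM for hits, variable for dose-response). Editing was delivered by nucleofection into U2OS.eGFP.PEST cells as SpCas9/gRNA plasmids (300/30 ng) or RNP (10/12 pmol). Toxic and autofluorescent compounds were excluded.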

[2] = target: T1, SaCas9 (Staphylococcus aureus, UniProt J7RUA5); test: eGFP secondary assay, SaCas9; assay type: cell-based; conditions: for Z score Avg Z: average of two replicates, Zscore>3 selected as hit; for Normalized Inhibition Rep 1: replicate 1; for Normalized eGFP Disruption Rep 1: replicate 1, % eGFP disruption; for Z score Rep1: replicate 1, Zscore>3 selected as hit; for Normalized Inhibition Rep 2: replicate 2; for Normalized eGFP Disruption Rep 2: replicate 2, % eGFP disruption; for Z score Rep 2: replicate 2, Zscore>3 selected as hit
T1 sequence (J7RUA5 1-1053): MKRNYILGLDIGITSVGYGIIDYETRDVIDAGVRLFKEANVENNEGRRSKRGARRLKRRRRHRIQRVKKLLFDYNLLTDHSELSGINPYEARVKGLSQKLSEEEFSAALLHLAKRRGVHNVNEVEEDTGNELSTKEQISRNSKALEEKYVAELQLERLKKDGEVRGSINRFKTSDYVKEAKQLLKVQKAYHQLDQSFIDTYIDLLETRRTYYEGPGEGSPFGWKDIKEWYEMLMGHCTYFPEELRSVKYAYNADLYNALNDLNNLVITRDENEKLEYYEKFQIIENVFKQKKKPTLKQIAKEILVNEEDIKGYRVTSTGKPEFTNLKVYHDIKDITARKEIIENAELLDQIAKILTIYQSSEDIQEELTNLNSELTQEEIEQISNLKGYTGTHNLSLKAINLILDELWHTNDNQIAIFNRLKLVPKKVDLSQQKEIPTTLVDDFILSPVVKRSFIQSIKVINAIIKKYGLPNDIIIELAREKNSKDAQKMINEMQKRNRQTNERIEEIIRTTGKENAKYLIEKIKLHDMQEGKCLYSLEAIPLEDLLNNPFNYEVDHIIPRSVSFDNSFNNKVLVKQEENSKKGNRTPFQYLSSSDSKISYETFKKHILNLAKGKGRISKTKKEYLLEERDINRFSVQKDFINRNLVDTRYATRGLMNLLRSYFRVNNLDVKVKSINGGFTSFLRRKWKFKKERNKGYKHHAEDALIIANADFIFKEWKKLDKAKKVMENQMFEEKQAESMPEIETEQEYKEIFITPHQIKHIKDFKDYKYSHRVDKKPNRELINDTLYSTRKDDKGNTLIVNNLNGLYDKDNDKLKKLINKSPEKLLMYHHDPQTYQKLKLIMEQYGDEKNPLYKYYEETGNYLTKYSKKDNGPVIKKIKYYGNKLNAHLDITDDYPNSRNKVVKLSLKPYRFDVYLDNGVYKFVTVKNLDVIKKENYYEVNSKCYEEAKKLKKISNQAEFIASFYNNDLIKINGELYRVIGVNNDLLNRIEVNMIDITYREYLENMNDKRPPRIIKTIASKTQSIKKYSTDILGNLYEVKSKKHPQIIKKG
Procedure: All hit compounds were moved forward into the secondary and tertiary screens, in which they were tested in cell-based assays. An eGFP assay is used to determine hits in cells as the secondary screen (eGFP assay).
The eGFP secondary assay evaluated the hits identified from the primary screen. The compounds were judged off the % eGFP disruption to determine the Cas9 inhibition and the assay Zscore. […] The hits from the secondary screens will be processed through tertiary screens of dose studies and HiBit Assay as detailed herein.

[3] = target: T1, SaCas9; test: Strand displacement assay, SaCas9 primary screen; assay type: biochemical; conditions: for Auto Zscore Rep 1 / Auto Zscore Rep 2 / Normalized Zscore Rep 1 / Normalized Zscore Rep 2: SaCas9 primary screen; for Auto Zscore Rep 1 / Normalized Zscore Rep 1: replicate 1; for Auto Zscore Rep 2 / Normalized Zscore Rep 2: replicate 2; for Normalized Zscore Rep 1 / Normalized Zscore Rep 2: weaker potential hits; for 3 sigma Hit: flag 1 = hit at 3 sigma
Procedure, shortened: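 Cas9 RNP (1:1.2 protein:gRNA) pre-formed in 20 mM Tris-HCl pH 7.5, 100 mM KCl, 5 mM MgCl2, used at 10 nM (2× stock) with Alexa-Fluor 647 substrate/quencher at 1 nM/5 nM (2× stock). Reaction ran 2.5 h at 37°C; strand displacement read as fluorescence. Hits called by Z-score: 3–5σ weak, >5σ strong.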

[4] = Cas9 = lower control, Ctrl = upper control
[5] = normalized, lower control about 0, upper control about 1

Chain of SpCas9 (Q99ZW2 whole entry): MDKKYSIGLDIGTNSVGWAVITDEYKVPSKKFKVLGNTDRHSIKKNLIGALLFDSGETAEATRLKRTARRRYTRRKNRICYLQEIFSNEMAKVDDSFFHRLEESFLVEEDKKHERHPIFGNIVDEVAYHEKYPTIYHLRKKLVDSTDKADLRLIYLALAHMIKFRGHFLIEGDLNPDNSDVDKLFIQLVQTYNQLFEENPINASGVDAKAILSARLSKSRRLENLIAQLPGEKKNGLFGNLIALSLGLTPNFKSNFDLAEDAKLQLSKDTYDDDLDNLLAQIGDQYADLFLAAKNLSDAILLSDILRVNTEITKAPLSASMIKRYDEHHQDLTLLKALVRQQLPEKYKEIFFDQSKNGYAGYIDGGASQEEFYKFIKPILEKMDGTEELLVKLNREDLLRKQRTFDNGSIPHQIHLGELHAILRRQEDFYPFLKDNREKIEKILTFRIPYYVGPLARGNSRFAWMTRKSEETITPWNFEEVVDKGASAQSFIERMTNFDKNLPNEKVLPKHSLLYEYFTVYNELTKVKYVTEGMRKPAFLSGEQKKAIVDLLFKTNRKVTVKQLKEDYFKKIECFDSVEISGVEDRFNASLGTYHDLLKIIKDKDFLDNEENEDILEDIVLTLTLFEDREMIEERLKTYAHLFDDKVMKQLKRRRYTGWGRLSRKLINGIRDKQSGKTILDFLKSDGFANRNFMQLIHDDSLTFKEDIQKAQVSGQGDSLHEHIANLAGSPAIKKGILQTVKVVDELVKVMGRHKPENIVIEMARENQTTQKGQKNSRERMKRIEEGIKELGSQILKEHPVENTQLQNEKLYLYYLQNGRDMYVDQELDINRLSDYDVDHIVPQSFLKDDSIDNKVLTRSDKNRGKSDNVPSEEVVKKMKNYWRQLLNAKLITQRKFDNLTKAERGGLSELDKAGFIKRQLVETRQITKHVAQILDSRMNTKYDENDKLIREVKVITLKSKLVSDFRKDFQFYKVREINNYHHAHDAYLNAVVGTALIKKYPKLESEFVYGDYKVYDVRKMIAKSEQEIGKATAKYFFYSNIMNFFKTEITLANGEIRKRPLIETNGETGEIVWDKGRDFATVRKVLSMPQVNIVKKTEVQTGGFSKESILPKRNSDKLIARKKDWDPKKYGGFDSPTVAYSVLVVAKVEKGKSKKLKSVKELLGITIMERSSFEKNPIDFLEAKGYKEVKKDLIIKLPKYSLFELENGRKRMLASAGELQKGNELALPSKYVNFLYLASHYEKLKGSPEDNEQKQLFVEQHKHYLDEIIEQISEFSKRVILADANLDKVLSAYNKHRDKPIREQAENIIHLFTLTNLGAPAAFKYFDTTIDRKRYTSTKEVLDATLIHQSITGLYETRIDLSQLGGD

| Structure (SMILES) | Z score Avg Z [2] | Normalized Inhibition Rep 1 [2] | Normalized eGFP Disruption Rep 1 [2] | Z score Rep1 [2] | Normalized Inhibition Rep 2 [2] | Normalized eGFP Disruption Rep 2 [2] | Z score Rep 2 [2] | other results |
| --- | --- | --- | --- | --- | --- | --- | --- | --- |
| Cc1occc1-c1nnc2sc(-c3c[nH]c4ccccc34)nn12 [Compound D727-0786] | 5.097 | 57.282 | 42.718 | 8.674 | 12.722 | 87.278 | 1.519 | Z score Rep1 [1]: 0.48; SpCas9 eGFP disruption Rep1 [1, 4]: 68.596; Normalized Z rep1 [1, 5]: 0.07; Z socre Rep2 [1]: 1.91; SpCas9 eGFP disruption Rep2 [1, 4]: 68.839; Normalized Z rep2 [1, 5]: 0.20 |
| O=C(NCCCN1CCC(N2CCCCC2)CC1)C1=Cc2sc3c(c2CS1)CCCC3 [E722-2652] | 5.750 | 43.522 | 56.478 | 5.564 | 47.827 | 52.173 | 5.937 | Auto Zscore Rep 1 [3]: 1.567; Auto Zscore Rep 2 [3]: 0.3807; Normalized Zscore Rep 1 [3]: 0.4606; Normalized Zscore Rep 2 [3]: 0.3192; 3 sigma Hit [3]: 1; 5 sigma Hit ([3]; flag 1 = hit at 5 sigma): 1 |
| Cc1cc(-c2nn3c(-c4cccc(F)c4)nnc3s2)c2ccccc2n1 [D727-0417] | 3.995 | 33.326 | 66.674 | 5.046 | 24.659 | 75.341 | 2.944 | – |
| C=CC1=C(C(=O)O)N2C(=O)[C@@H](NC(=O)C(=NOCC(=O)O)c3csc(N)n3)[C@H]2SC1.O [SAM001246816] | 3.731 | 37.117 | 62.883 | 4.745 | 21.891 | 78.109 | 2.717 | Z score Rep1 [1]: 0.17; SpCas9 eGFP disruption Rep1 [1, 4]: 76.555; Normalized Z rep1 [1, 5]: 0.03; Z socre Rep2 [1]: −1.15; SpCas9 eGFP disruption Rep2 [1, 4]: 74.015; Normalized Z rep2 [1, 5]: −0.12 |
| NC(=O)c1sc(=S)n(Cc2ccccc2)c1N [Compound F128-0030] | 8.704 | 70.438 | 29.562 | 9.005 | 67.693 | 32.307 | 8.402 | Auto Zscore Rep 1 [3]: −0.4371; Auto Zscore Rep 2 [3]: 0.1928; Normalized Zscore Rep 1 [3]: 0.187; Normalized Zscore Rep 2 [3]: 0.143; 3 sigma Hit [3]: 1 |
| CC1(C(=O)NC2CCCCC2)Cn2c(cc3ccccc32)C(=O)N1Cc1ccccc1 (stereo not drawn) [E234-0008] | 5.237 | 50.589 | 49.411 | 5.989 | 34.101 | 65.899 | 4.485 | – |
| Fc1cccc(-c2nnc3sc(-c4c[nH]c5ccccc45)nn23)c1 [Compound D727-0772] | 3.957 | 42.243 | 57.757 | 6.397 | 12.707 | 87.293 | 1.517 | – |
| CCOc1ccc(NC(=O)c2cc(=O)c3cc(CC)ccc3o2)c2cccnc12 [Compound D656-0061] | 3.973 | 7.616 | 92.384 | 1.153 | 56.899 | 43.101 | 6.794 | – |
| O=C1c2ccccc2C(=O)c2oc(-c3ccc(F)cc3)nc21 [T0502-0200] | 3.138 | 35.091 | 64.909 | 3.528 | 35.519 | 64.481 | 2.749 | – |
| Cc1cc(=O)c2cc(C(=O)Nc3ccc(F)cc3)ccc2[nH]1 [D421-0876] | 3.719 | 37.535 | 62.465 | 3.774 | 47.343 | 52.657 | 3.664 | – |
| Cc1ccccc1CC(=O)N1CCCC(c2nc(O)c3nnn(Cc4ccc(F)cc4)c3n2)C1 (stereo not drawn) [D297-0031] | 3.488 | 35.959 | 64.041 | 3.615 | 43.425 | 56.575 | 3.361 | – |
| Cc1nn(-c2ccccc2)c(C)c1CCc1nnc2sc(-c3ccc(N(C)C)cc3)nn12 [D727-0717] | 6.053 | 33.284 | 66.716 | 5.040 | 59.171 | 40.829 | 7.065 | – |
| Cc1ccc(C)c(Nc2nc(C(N)=O)c(NC(=O)c3ccc(C)nc3Cl)s2)c1 [D686-0195] | 6.110 | 29.879 | 70.121 | 4.525 | 64.458 | 35.542 | 7.696 | – |
| CCCN(CCC)C(=O)C1CCCN(c2ccc(-c3ccccc3)nn2)C1 (stereo not drawn) [F305-0061] | 5.220 | 39.473 | 60.527 | 4.673 | 43.845 | 56.155 | 5.767 | – |
| CC(C)Cc1nnc2sc(-c3c[nH]c4ccccc34)nn12 [D727-0768] | 4.634 | 20.049 | 79.951 | 3.036 | 52.187 | 47.813 | 6.231 | – |
| CNC(=O)c1sc(=S)n2c1[nH]c(=O)c1cc(Br)ccc12 [F083-0285] | 3.318 | 30.708 | 69.292 | 3.635 | 22.819 | 77.181 | 3.002 | Normalized Z rep1 [1]: −0.25; Z score Rep1 [1]: −1.78; SpCas9 eGFP disruption Rep1 [1]: 61.126; Normalized Z rep2 [1]: −0.48; Z socre Rep2 [1]: −4.46; SpCas9 eGFP disruption Rep2 [1]: 49.642 |
